From US20060148858A1, “1, 2-Azole derivatives with hypoglycemic and hypolipidemic activity” (priority 2002, published 2006)

SMILES	melting point
O=C(O)CCc1cccc(OCc2cn(-c3ccc(C(F)(F)F)cn3)nc2C2CCCCC2)c1 [Example 191, 3-(3-{3-cyclohexyl-1-[5-(trifluoromethyl)-2-pyridyl]-1H-pyrazol-4-yl}methoxyphenyl)propionic acid]	94 to 95 °C
COc1cccc(CC(=O)O)c1OCCCc1cn(-c2nnc(C(F)(F)F)s2)nc1C(C)C [Example 194, [3-methoxy-2-(3-{3-(1-methylethyl)-1-[5-(trifluoromethyl)-1,3,4-thiadiazole-2-yl]-1H-pyrazol-4-yl}propoxy)phenyl]acetic acid]	144 to 145 °C
O=C(O)CCCc1cccc(OCc2cn(-c3ccc(C(F)(F)F)cn3)nc2C2CCCCC2)c1 [Example 195, 4-(3-{3-cyclohexyl-1-[5-(trifluoromethyl)-2-pyridyl]-1H-pyrazol-4-yl}methoxyphenyl)butanoic acid]	128 to 129 °C
CCCCc1nn(-c2ccc(C(F)(F)F)cn2)cc1CCCOc1nn(C)cc1CC(=O)O [Example 199, [3-(3-{3-butyl-1-[5-(trifluoromethyl)-2-pyridyl]-1H-pyrazol-4-yl}propoxy)-1-methyl-1H-pyrazol-4-yl]acetic acid]	125 to 126 °C
CCCCc1nn(-c2ccc(C(F)(F)F)cn2)cc1CCCOc1cc(CC(=O)O)ccc1OCC [Example 202, [3-(3-{3-butyl-1-[5-(trifluoromethyl)-2-pyridyl]-1H-pyrazol-4-yl}propoxy)-4-ethoxyphenyl]acetic acid]	105 to 106 °C
COc1cc(CC(=O)O)cc(OCCCc2cn(-c3ccc(C(F)(F)F)cn3)nc2C(C)C)c1 [Example 203, [3-(3-{3-isopropyl-1-[5-(trifluoromethyl)-2-pyridyl]-1H-pyrazol-4-yl}propoxy)-5-methoxyphenyl]acetic acid]	109 to 110 °C
COc1ccc(CC(=O)O)c(OCCCc2cn(-c3ccc(C(F)(F)F)cn3)nc2C(C)C)c1 [Example 205, [2-(3-{3-isopropyl-1-[5-(trifluoromethyl)-2-pyridyl]-1H-pyrazol-4-yl}propoxy)-4-methoxyphenyl]acetic acid]	143 to 144 °C
COc1ccc(OCCCc2cn(-c3ccc(C(F)(F)F)cn3)nc2C(C)C)c(CC(=O)O)c1 [Example 206, [2-(3-{3-isopropyl-1-[5-(trifluoromethyl)-2-pyridyl]-1H-pyrazol-4-yl}propoxy)-5-methoxyphenyl]acetic acid]	143 to 144 °C
COc1cccc(OCCCc2cn(-c3ccc(C(F)(F)F)cn3)nc2C(C)C)c1CC(=O)O [Example 208, [2-(3-{3-isopropyl-1-[5-(trifluoromethyl)-2-pyridyl]-1H-pyrazol-4-yl}propoxy)-6-methoxyphenyl]acetic acid]	183 to 184 °C
CCCc1nn(-c2ccc(C(F)(F)F)cn2)cc1CCCOc1c(F)cccc1CC(=O)O [Example 211, [3-fluoro-2-(3-{3-propyl-1-[5-(trifluoromethyl)-2-pyridyl]-1H-pyrazol-4-yl}propoxy)phenyl]acetic acid]	105 to 106 °C
CCC(C)c1nn(-c2ccc(C(F)(F)F)cn2)cc1CCCOc1c(C)cccc1CC(=O)O (stereo not drawn) [Example 219, [3-methyl-2-(3-{3-(1-methylpropyl)-1-[5-(trifluoromethyl)-2-pyridyl]-1H-pyrazol-4-yl}propoxy)phenyl]acetic acid]	134 to 135 °C
CC(C)c1nn(-c2ccc(C(F)(F)F)cn2)cc1CCCOc1c(C#N)cccc1CC(=O)O [Example 231, [3-cyano-2-(3-{3-isopropyl-1-[5-(trifluoromethyl)-2-pyridinyl]-1H-pyrazol-4-yl}propoxy)phenyl]acetic acid]	144 to 145 °C
CCCc1nn(-c2ccc(C(F)(F)F)cn2)cc1CCCOc1c(C#N)cccc1CC(=O)O [Example 233, [3-cyano-2-(3-{3-propyl-1-[5-(trifluoromethyl)-2-pyridinyl]-1H-pyrazol-4-yl}propoxy)phenyl]acetic acid]	146 to 147 °C
CCc1cccc(CC(=O)O)c1OCCCc1cn(-c2ccc(Cl)cn2)nc1C(C)C [Example 243, (2-{3-[1-(5-chloro-2-pyridinyl)-3-isopropyl-1H-pyrazol-4-yl]propoxy}-3-ethylphenyl)acetic acid]	142 to 143 °C
CCc1cccc(CC(=O)O)c1OCCCc1cn(-c2ncc(C(F)(F)F)cc2Cl)nc1C(C)C [Example 249, [2-(3-{1-[3-chloro-5-(trifluoromethyl)-2-pyridinyl]-3-isopropyl-1H-pyrazol-4-yl}propoxy)-3-ethylphenyl]acetic acid]	93 to 95 °C
CCc1cccc(CC(=O)O)c1OCCCc1cn(-c2ncc(Cl)cc2Cl)nc1C(C)C [Example 251, (2-{3-[1-(3,5-dichloro-2-pyridinyl)-3-isopropyl-1H-pyrazol-4-yl]propoxy}-3-ethylphenyl)acetic acid]	93 to 95 °C

More lines, now with the values ahead:

melting point	SMILES
138 to 139 °C	CCCc1cn(CC(=O)O)nc1OCCCc1cn(-c2ccc(C(F)(F)F)cn2)nc1CCC [Example 254, [4-propyl-3-(3-{3-propyl-1-[5-(trifluoromethyl)-2-pyridyl]-1H-pyrazol-4-yl}propoxy)-1H-pyrazol-1-yl]acetic acid]
164 to 165 °C	CCCc1nn(-c2ccc(C(F)(F)F)cn2)cc1CCCOc1cc(CCC(=O)O)n(C2CCCCC2)n1 [Example 256, 3-[1-cyclohexyl-3-(3-{3-propyl-1-[5-(trifluoromethyl)-2-pyridyl]-1H-pyrazol-4-yl}propoxy)-1H-pyrazol-5-yl]propanoic acid]
89 to 90 °C	CCOc1nn(-c2ccc(C(F)(F)F)cn2)cc1CCCOc1cc(CCC(=O)O)n(C2CCCCC2)n1 [Example 257, 3-[1-cyclohexyl-3-(3-{3-ethoxy-1-[5-(trifluoromethyl)-2-pyridyl]-1H-pyrazol-4-yl}propoxy)-1H-pyrazol-5-yl]propanoic acid]
190 to 191 °C	O=C(O)CCc1cc(OCCCc2cn(-c3ccc(C(F)(F)F)cn3)nc2C2CCCCC2)nn1C1CCCCC1 [Example 261, 3-[1-cyclohexyl-3-(3-{3-cyclohexyl-1-[5-(trifluoromethyl)-2-pyridyl]-1H-pyrazol-4-yl}propoxy)-1H-pyrazol-5-yl]propanoic acid]
166 to 167 °C	CC(C)c1nn(-c2ccc(C(F)(F)F)cn2)cc1CCCOc1cc(CCC(=O)O)n(C2CCCCC2)n1 [Example 262, 3-[1-cyclohexyl-3-(3-{3-isopropyl-1-[5-(trifluoromethyl)-2-pyridyl]-1H-pyrazol-4-yl}propoxy)-1H-pyrazol-5-yl]propanoic acid]
130 to 131 °C	CC(C)c1nn(-c2ccc(C(F)(F)F)cn2)cc1CCCOc1cc(CCC(=O)O)n(C(C)C)n1 [Example 263, 3-[1-isopropyl-3-(3-{3-isopropyl-1-[5-(trifluoromethyl)-2-pyridyl]-1H-pyrazol-4-yl}propoxy)-1H-pyrazol-5-yl]propanoic acid]
158 to 159 °C	COc1cccc(CC(=O)O)c1OCCCc1cn(-c2ccc(NC(C)=O)cn2)nc1C(C)C [Example 265, (2-{3-[1-(5-acetylamino-2-pyridyl)-3-isopropyl-1H-pyrazol-4-yl]propoxy}-3-methoxyphenyl)acetic acid]
147 to 148 °C	CCC(=O)Nc1ccc(-n2cc(CCCOc3c(CC(=O)O)cccc3OC)c(C(C)C)n2)nc1 [Example 266, (3-methoxy-2-{3-[3-isopropyl-1-(5-propanoylamino-2-pyridyl)-1H-pyrazol-4-yl]propoxy}phenyl)acetic acid]
119 to 120 °C	CCCC(=O)Nc1ccc(-n2cc(CCCOc3c(CC(=O)O)cccc3OC)c(C(C)C)n2)nc1 [Example 267, (2-{3-[1-(5-butyrylamino-2-pyridyl)-3-isopropyl-1H-pyrazol-4-yl]propoxy}-3-methoxyphenyl)acetic acid]
122 to 123 °C	COc1cccc(CC(=O)O)c1OCCCc1cn(-c2ccc(NC(=O)C(C)C)cn2)nc1C(C)C [Example 268, [3-methoxy-2-(3-{3-isopropyl-1-[5-(2-methylpropanoylamino)-2-pyridyl]-1H-pyrazol-4-yl}propoxy)phenyl]acetic acid]
176 to 177 °C	COc1cccc(CC(=O)O)c1OCCCc1cn(-c2ccc(NS(C)(=O)=O)cn2)nc1C(C)C [Example 269, (3-methoxy-2-{3-[3-isopropyl-1-(5-methylsulfonylamino-2-pyridyl)-1H-pyrazol-4-yl]propoxy}phenyl)acetic acid]
103 to 104 °C	CCc1cnc(-n2cc(CCCOc3c(CC(=O)O)cccc3OC)c(C(C)C)n2)nc1 [Example 276, (2-{3-[1-(5-ethylpyrimidin-2-yl)-3-isopropyl-1H-pyrazol-4-yl]propoxy}-3-methoxyphenyl)acetic acid]
143 to 144 °C	Cc1nn(-c2ccc(C(F)(F)F)cn2)cc1CCCOc1cc(CC(=O)O)n(C)n1 [Example 283, [1-methyl-3-(3-{3-methyl-1-[5-(trifluoromethyl)-2-pyridinyl]-1H-pyrazol-4-yl}propoxy)-1H-pyrazol-5-yl]acetic acid]
156 to 158 °C	CCOc1nn(-c2ccc(C(F)(F)F)cn2)cc1CCOc1cc(CC(=O)O)n(C)n1 [Example 284, [3-(2-{3-ethoxy-1-[5-(trifluoromethyl)-2-pyridinyl]-1H-pyrazol-4-yl}ethoxy)-1-methyl-1H-pyrazol-5-yl]acetic acid]
79 to 81 °C	CCOc1cc(OCCCc2cn(-c3cc(C(F)(F)F)ccn3)nc2OCC)ccc1CCC(=O)OC [Example 285, methyl 3-[2-ethoxy-4-(3-{3-ethoxy-1-[4-(trifluoromethyl)-2-pyridinyl]-1H-pyrazol-4-yl}propoxy)phenyl]propanoate]
128 to 130 °C	CCOc1nn(-c2cc(C(F)(F)F)ccn2)cc1CCCOc1cccc(CC(=O)O)c1 [Example 286, [3-(3-{3-ethoxy-1-[4-(trifluoromethyl)-2-pyridinyl]-1H-pyrazol-4-yl}propoxy)phenyl]acetic acid]
111 to 112 °C	CCOc1nn(-c2cc(C(F)(F)F)ccn2)cc1CCCOc1ccc(CCC(=O)O)cc1OC [Example 287, 3-[4-(3-{3-ethoxy-1-[4-(trifluoromethyl)-2-pyridinyl]-1H-pyrazol-4-yl}propoxy)-3-methoxyphenyl]propanoic acid]
